Article PMC10683025, “Discovery of a Hydroxylamine-Based Brain-Penetrant EGFR Inhibitor for Metastatic Non-Small-Cell Lung Cancer” (Journal of Medicinal Chemistry, 2023)
In brackets after ≈: the same amount, converted by molar mass.

How the values were obtained:
[1] = Metabolic stability in liver microsomes; assay type: in vitro ADME, human; conditions: human LM
Protocol: (§3) Microsome stability was assessed in duplicate (n = 2) in the presence and absence of nicotinamide adenine dinucleotide phosphate (NADPH) with liver microsomes (0.5 mg/mL) from human (BD Gentest) and Sprague-Dawley rats (BD Gentest). Compounds were incubated in liver microsomes at 1 μM and samples (30 μL) were taken at 0.5, 15, 30, 45, and 60 min time points for analysis by LC-MS/MS. Hepatocyte stability was assessed in duplicate (n = 2) at a working cell density of 0.5 × 10^6 cells/mL with hepatocytes from human (BiolVT), Sprague-Dawley rat (BiolVT), cynomolgus monkey (RILD) or beagle dog (BiolVT). […] The in vitro half-life and intrinsic clearances were determined as previously described.[76]
(§4) In vitro half-life (in vitro t1/2) was determined from the slope value in [drawing 1] where k was determined by linear regression of the natural logarithm of the remaining percentage of the parent drug vs the incubation time curve.

[2] = Lipophilicity, shake-flask; assay type: physicochemical; conditions: 1-octanol/PBS; 1-octanol and PBS (pH 7.4); read-out: logD7.4
Protocol: Compound lipophilicity was determined by Pharmaron, Inc. using the shake-flask method with 1-octanol and PBS (pH 7.4). Each compound was assessed in duplicate (n = 2) at 1 μM in a 96-well plate shaken at 25 °C and 2000 rpm for 2 h. Samples were analyzed by liquid chromatography and tandem mass spectrometry (LC-MS/MS).

P-gp and BCRP = system: P-gp and BCRP; parameters: method as in ref 17−20; conditions: ref 17−20; cited from earlier work
Plasma stability [3] = assay type: in vitro ADME, Sprague-Dawley rat; conditions: rat plasma
Protocol: (§1) Assessment of compounds to determine stability in incubations containing plasma of human (Pharmaron) and Sprague-Dawley rat (IPHASE) was performed by Pharmaron, Inc. using the compound […] approach. Compounds were assessed in duplicate (n = 2) and incubated in plasma at 5 μM and samples (50 μL) were taken at 0, 15, 30, 60, and 120 min time points for analysis by LC-MS/MS. Peak area ratios were determined from the extracted ion chromatogram and the percent compound remaining at each time point was calculated by the following equation: [drawing 2] where peak area ratiot min is the peak area ratio of control and test compound at t min and peak area ratio0 min is the peak area ratio of control and test compound at zero time point.

[4] = Plasma protein binding by equilibrium dialysis; assay type: in vitro ADME, mouse
Protocol: (§2) Plasma protein binding and brain tissue binding were determined by Pharmaron, Inc. using the equilibrium dialysis method. […] Following incubation, the samples were analyzed by LC-MS/MS and the concentrations of the compounds were determined in the buffer and plasma solution chambers.

Solubility assay = assay type: physicochemical; conditions: buffer, pH 7.4, aqueous buffer; read-out: Aq. Sol.
Protocol: Solubility was determined by Pharmaron, Inc. and each compound was assessed in duplicate (n = 2) by adding 15 μL of compound stock solution (10 mM in DMSO) into a 96-well plate along with 485 μL of buffer followed by shaking at 25 °C, 1100 rpm for 2 h. Wells were filtered, and samples (5 μL) were taken followed by dilution with an equal volume of DMSO (5 μL) and 490 μL of aqueous solution. Samples were analyzed by LC-MS/MS.

Plasma stability [5] = assay type: in vitro ADME, human; conditions: human plasma
Protocol: as §1

[6] = parameters: method as in PMID 33028591; conditions: single oral dose of 10 mg/kg in Han Wistar rats ref 18; cited from earlier work
[7] = Metabolic stability in hepatocytes; assay type: in vitro ADME, human; conditions: for Remaining Percentages: human hepatocytes
Protocol: as §3, §4

[8] = Brain tissue binding by equilibrium dialysis; assay type: in vitro ADME; conditions: rat
Protocol: as §2

[9] = Metabolic stability in liver microsomes; assay type: in vitro ADME, Sprague-Dawley rat; conditions: rat LM
Protocol: as §3, §4

[10] = Plasma protein binding by equilibrium dialysis; assay type: in vitro ADME
Protocol: as §2

[11] = Metabolic stability in hepatocytes; assay type: in vitro ADME, Sprague-Dawley rat; conditions: rat hepatocytes
Protocol: as §3, §4

[12] = cited from earlier work
[13] = Sprague-Dawley, rat, rat plasma

Compound: COc1cc2ncnc(Nc3ccc(F)c(Cl)c3)c2cc1OCCCN1CCOCC1 [Gefitinib (1), Gefitinib, reference compound]
- Remaining Percentage ([1]; +Cofactors, 15 min): 39.75%
- Remaining Percentage ([1]; +Cofactors, 30 min): 19.60%
- Remaining Percentage ([1]; +Cofactors, 45 min): 12.23%
- Remaining Percentage ([1]; +Cofactors, 60 min): 8.14%
- Remaining Percentage ([1]; -Cofactors, 60 min): 100.00%
- logD at 2 h, 1 µM [2]: 3.7
- efflux status against common efflux transporters (P-gp and BCRP): P-gp and BCRP Substrate
- Remaining Percentages (Plasma stability [3]; 15 min): 100.11%
- Remaining Percentages (Plasma stability [3]; 30 min): 98.28%
- Remaining Percentages (Plasma stability [3]; 60 min): 95.04%
- Remaining Percentages (Plasma stability [3]; 120 min): 93.66%
- t1/2 (Plasma stability [3]; ∞ = no degradation): ∞
- recovery at 6 h, 5 μM ([4]; CD-1, mouse, mouse plasma): 99.4%
- remaining at 6 h, 5 μM ([4]; CD-1, mouse, mouse plasma): 98%
- fraction unbound at 6 h, 5 μM ([4]; CD-1, mouse, mouse plasma, read-out: %Bound (converted)): 0.0781
- fraction unbound at 6 h, 5 μM ([4]; CD-1, plasma, mouse, 5 μM, read-out: fu,plasma% / %Unbound): 0.0781
- solubility kinetic at 2 h (Solubility assay): 4 µM (≈ 1.79 µg/mL)
- Remaining Percentages (Plasma stability [5]; 15 min): 103.40%
- Remaining Percentages (Plasma stability [5]; 30 min): 103.92%
- Remaining Percentages (Plasma stability [5]; 60 min): 101.33%
- Remaining Percentages (Plasma stability [5]; 120 min): 104.45%
- t1/2 (Plasma stability [5]; ∞ = no degradation): ∞
- Kp,uu (AUC0−16h) [6]: 0.0092
- Remaining Percentages ([7]; 15 min): 97.55%
- Remaining Percentages ([7]; 30 min): 94.76%
- Remaining Percentages ([7]; 60 min): 73.38%
- Remaining Percentages ([7]; 90 min): 50.47%
- Remaining Percentages ([7]; 120 min): 39.53%
- half-life at 2 h, 1 µM ([7]; human, hepatocytes, read-out: HEP t1/2): 1.39 h
- recovery at 6 h, 5 μM ([8]; Sprague-Dawley (SD), rat brain homogenate): 99.7%
- fraction unbound at 6 h, 5 μM ([8]; Sprague-Dawley, brain homogenate, read-out: fu,brain% / %Unboundbrain): 0.006
- remaining at 6 h, 5 μM ([8]; Sprague-Dawley, rat brain homogenate): 105%
- fraction unbound at 6 h, 5 μM ([8]; Sprague-Dawley, rat brain homogenate, read-out: %Boundbrain (converted)): 0.006
- Remaining Percentage ([9]; +Cofactors, 15 min): 63.13%
- Remaining Percentage ([9]; +Cofactors, 30 min): 37.48%
- Remaining Percentage ([9]; +Cofactors, 45 min): 25.25%
- Remaining Percentage ([9]; +Cofactors, 60 min): 19.26%
- Remaining Percentage ([9]; -Cofactors, 60 min): 115.38%
- fraction unbound at 6 h, 5 μM ([10]; Sprague-Dawley, rat, plasma, 5 μM, read-out: fu,plasma% / %Unbound): 0.0249
- recovery at 6 h, 5 μM [10, 13]: 105%
- remaining at 6 h, 5 μM [10, 13]: 105%
- fraction unbound at 6 h, 5 μM ([10]; Sprague-Dawley, rat, rat plasma, read-out: %Bound (converted)): 0.0249
- recovery at 6 h, 5 μM ([10]; human, human plasma): 106%
- remaining at 6 h, 5 μM ([10]; human, human plasma): 98.8%
- fraction unbound at 6 h, 5 μM ([10]; human, human plasma, read-out: fu,plasma% / %Unbound (converted)): 0.0766
- fraction unbound at 6 h, 5 μM ([10]; plasma, human, 5 μM, read-out: fu,plasma% / %Unbound (converted)): 0.0766
- Remaining Percentages ([11]; 15 min): 66.86%
- Remaining Percentages ([11]; 30 min): 59.92%
- Remaining Percentages ([11]; 60 min): 39.44%
- Remaining Percentages ([11]; 90 min): 21.69%
- Remaining Percentages ([11]; 120 min): 13.94%

Compound: hydroxylamine
- pKa [12]: 5.9
